Our source for the IC50 values is US8080552B2, “Pyrimidyl derivatives as protein kinase inhibitors” (Hoffmann-LA Roche Inc., priority 2006, dated 2011).

pIC50: −log10 of the molar value.

Experiment [1] concerns HCT 116 cells. Kind of experiment: CellTiter-Glo assay in HCT 116 cells. Particulars: 120 h; HCT 116 human colon carcinoma cells, 5 days incubation, cell viability (ATP luminescence). The experiment is classed as cell-based. The source says: CellTiter-Glo™ Assay in HCT 116 Cells:
The CellTiter-Glo™ Luminescent Cell Viability Assay (Promega) is a homogeneous method of determining the number of viable cells in culture based on quantitation of the ATP present, which signals the presence of metabolically active cells.
HCT 116 cells (human colon carcinoma, ATCC-No. CCl-247) were cultivated in RPMI 1640 medium with GlutaMAX™ I (Invitrogen, Cat-No. 61870-010), 5% Fetal Calf Serum (FCS, Sigma Cat-No. F4135 (FBS)); 100 Units/ml penicillin/100 μg/ml streptomycin (=Pen/Strep from Invitrogen Cat. No. 15140). For the assay the cells were seeded in 384 well plates, 1000 cells per well, in the same medium. The next day the test compounds were added in various concentrations ranging from 30 μM to 0.0015 μM (10 concentrations, 1:3 diluted). After 5 days the CellTiter-Glo™ assay was done according to the instructions of the manufacturer (CellTiter-Glo™ Luminescent Cell Viability Assay, from Promega). In brief: the cell-plate was equilibrated to room temperature for approximately 30 minutes and than the CellTiter-Glo™ reagent was added. The contents were carefully mixed for 15 minutes to induce cell lysis. After 45 minutes the luminescent signal was measured in Victor 2, (scanning multiwell spectrophotometer, Wallac).
• Medium: RPMI 1640 with GlutaMAX™ I (Invitrogen, Cat-Nr. 61870), 5% FCS (Sigma Cat.-No. F4135), Pen/Strep (Invitrogen, Cat No. 15140). • HCT116 (ATCC-No. CCl-247): 1000 cells in 60 μl per well of 384 well plate (Greiner 781098, μClear-plate white) • After seeding incubate plates 24 h at 37° C., 5% CO2 2nd. Day: Induction (Treatment with Compounds, 10 Concentrations):
In order to achieve a final concentration of 30 μM as highest concentration 3.5 μl of 10 mM compound stock solution were added directly to 163 μl media. Then step e) of the dilution procedure described below, was followed.
(In ATP-based viability assays light output follows the ATP content of the culture.)

The test system of experiment [2] is VEGF-induced HUVEC cells. The experiment in a line: CellTiter-Glo assay in VEGF-induced HUVEC cells. The experiment is classed as cell-based. As to conditions: Homo sapiens; Table 2; VEGF-induced (20 ng/ml) HUVEC cells, 72 hours, cell viability (ATP luminescence); read-out: IC50 HCT 116. How it is done: CellTiter-Glo™ Assay in VEGF-Induced HUVEC Cells:
HUVEC-c (Human Umbilical Vein Endothelial Cells, from Promocell Cat-No. C-12200) cells were trypsinized, spinned down and plated in 384-well plates at 1500 cells per well in 60 μl endothelial basal medium (EBM-2 from Promocell, Cat-No. C-22211) with 0.5% Fetal Calf Serum (FCS, Sigma Cat-No. F4135 (FBS)). Cells were incubated overnight at 37° C., and the next day, test compounds (stock solution 140 μmol/l in medium with 4.2% dimethylsulfoxide (DMSO)) were added in 5 μl medium over a final concentration range of 10 μmol/l to 0.5 nmol/l and 0.3% DMSO. Compounds were tested in triplicates. After 2 hrs 5 μl VEGF (VEGF 165, R&D Systems, Cat-No. 293-VE-010, stock solution 280 ng/ml in medium) was added to a final concentration of 20 ng/ml. Cells were incubated for 72 hours at 37° C. in medium. Cell number was quantitated using CellTiter-Glo™ Luminescent Cell Viability Assay (from Promega) according to the instructions of the supplier. This assay measures the number of viable cells per well by measurement of luminescent signal based on amount of cellular ATP. IC50 are determined using a non-linear curve fit (XLfit software (ID Business Solution Ltd., Guilford, Surrey, UK)) (see also CellTiter-Glo™ assay in HCT 116 cells above).

Broadly, the pIC50 is the IC50 on a negative log10 scale, so that one unit is a factor of ten. With `O=C(Nc1ccc(Oc2cc(NCCCO)ncn2)cc1)Nc1cccc(C(F)(F)F)c1` [Example 21, 1-{4-[6-(3-Hydroxy-propylamino)-pyrimidin-4-yloxy]-phenyl}-3-(3-trifluoromethyl-phenyl)-urea], the pIC50 was 5.00 to 6.52 in experiment [1] and 6.12 to 8.30 in experiment [2].
The corresponding values for `O=C(Nc1ccc(Cl)cc1)Nc1ccc(Oc2ccnc(NCCCO)n2)cc1` [Example 6, 1-(4-Chloro-phenyl)-3-{4-[2-(3-hydroxy-propylamino)-pyrimidin-4-yloxy]-phenyl}-urea] are 5.00 to 6.52 and 6.59.
As for `O=C(Nc1ccc(Oc2ccnc(NCCCO)n2)cc1)Nc1cc(C(F)(F)F)ccc1F` [Example 8, 1-(2-Fluoro-5-trifluoromethyl-phenyl)-3-{4-[2-(3-Hydroxy-propylamino)-pyrimidin-4-yloxy]-phenyl}-urea], the pIC50 in experiment [1] was 5.00 to 6.52; in experiment [2], 6.12 to 8.30.
Turning to `O=C(Nc1ccc(Oc2ccnc(NCCCO)n2)cc1)Nc1ccc(Cl)c(C(F)(F)F)c1` [Example 9, 1-(4-Chloro-3-trifluoromethylphenyl)-3-{4-[2-(3-Hydroxy-propylamino)-pyrimidin-4-yloxy]-phenyl}-urea], the pIC50 in experiment [1] is 5.40; in experiment [2], 6.12 to 8.30.
